The target in the assay is T1, recombinant human AMPK complex, containing α2β1γ2 (Homo sapiens, UniProt P54646+Q9Y478).
T1 construct: hsAMPKα2-552-His, hsAMPKβ1-2-270 and hsAMPKγ-2-569 respectively; hsAMPKβ1-2-270; hsAMPKγ-2-569; His (C); made in house; host or cells: Spodoptera frugiperda Sf21 (baculovirus)
Nature of the assay: AMPK in vitro activation assay (HTRF). The conditions noted are these: for EC50: HTRF, recombinant human α2β1γ2 AMPK, 200 μM ATP, biotinylated ACC-CREBp peptide, repeat determinations on separate lines; for Emax: potentiation of AMPK activity as percent over the basal signal (without compound). In kind it is biochemical. In short, it runs like this:
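Sf21-expressed, Ni-NTA partially purified α2β1γ2 complex preincubated 30 min at room temperature with compound (0.5% DMSO) in HEPES pH 7.0, MgCl2, DTT. Reaction was started with a solution holding 200 μM ATP and 2 or 0.08 μM biotinylated ACC-CREBp peptide, run 45 min at 37° C, then read by HTRF with anti-pS133-CREB; EC50 from percent over basal.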

Where a name gives a salt, the structure may show the parent alone.

For orientation: EC50 means the midpoint of the concentration-response curve. By Emax is commonly meant the greatest response seen or fitted, relative to the assay's reference.

T1 sequence (P54646 2-552): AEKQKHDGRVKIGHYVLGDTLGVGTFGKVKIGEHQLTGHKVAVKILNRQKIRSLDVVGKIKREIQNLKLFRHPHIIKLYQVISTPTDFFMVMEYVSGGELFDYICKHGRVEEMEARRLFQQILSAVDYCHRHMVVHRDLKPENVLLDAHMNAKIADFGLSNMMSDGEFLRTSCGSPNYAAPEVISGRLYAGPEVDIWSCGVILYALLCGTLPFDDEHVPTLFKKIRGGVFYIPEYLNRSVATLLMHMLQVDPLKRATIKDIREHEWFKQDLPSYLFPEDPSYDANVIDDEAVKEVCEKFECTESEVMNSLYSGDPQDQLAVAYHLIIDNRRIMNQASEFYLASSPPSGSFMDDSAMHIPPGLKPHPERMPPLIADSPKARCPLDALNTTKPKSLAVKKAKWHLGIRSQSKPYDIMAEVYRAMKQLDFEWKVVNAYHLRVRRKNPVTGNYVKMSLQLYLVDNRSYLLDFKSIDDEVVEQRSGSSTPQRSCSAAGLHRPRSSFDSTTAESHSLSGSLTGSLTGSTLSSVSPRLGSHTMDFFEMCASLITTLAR
T1 sequence (Q9Y478 2-270): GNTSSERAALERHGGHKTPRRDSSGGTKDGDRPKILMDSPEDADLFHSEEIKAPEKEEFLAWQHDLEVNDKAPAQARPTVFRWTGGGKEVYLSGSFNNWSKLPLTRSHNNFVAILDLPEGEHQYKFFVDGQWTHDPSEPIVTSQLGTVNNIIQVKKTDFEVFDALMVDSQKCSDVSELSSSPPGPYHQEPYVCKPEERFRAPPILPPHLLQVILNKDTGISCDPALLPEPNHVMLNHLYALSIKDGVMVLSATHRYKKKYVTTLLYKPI
T1 sequence (Q9UGJ0 2-569 partner limits assumed): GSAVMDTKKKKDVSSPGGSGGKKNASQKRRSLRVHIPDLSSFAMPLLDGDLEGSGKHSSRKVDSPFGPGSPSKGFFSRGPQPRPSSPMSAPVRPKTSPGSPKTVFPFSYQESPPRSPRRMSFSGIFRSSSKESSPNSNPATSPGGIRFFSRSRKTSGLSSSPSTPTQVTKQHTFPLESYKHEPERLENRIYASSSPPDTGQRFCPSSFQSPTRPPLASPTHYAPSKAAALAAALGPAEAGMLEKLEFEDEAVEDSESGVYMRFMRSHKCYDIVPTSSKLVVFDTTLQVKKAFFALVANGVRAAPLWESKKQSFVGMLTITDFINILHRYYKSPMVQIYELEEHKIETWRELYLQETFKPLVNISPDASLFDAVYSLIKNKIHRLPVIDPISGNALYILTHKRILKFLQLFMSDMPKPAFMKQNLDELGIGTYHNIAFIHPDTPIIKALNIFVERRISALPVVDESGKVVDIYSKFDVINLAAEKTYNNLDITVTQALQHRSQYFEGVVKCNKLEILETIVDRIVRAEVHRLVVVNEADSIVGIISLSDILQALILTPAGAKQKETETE

As for `COc1cc(C(O)=C2C(=O)Nc3cc(Cl)c(-c4ccc(N(C)C)c(F)c4)cc32)on1` [Compound 147, 6-chloro-5-[4-(dimethylamino)-3-fluoro-phenyl]-3-[hydroxy-(3-methoxyisoxazol-5-yl)methylene]indolin-2-one], the EC50 came out at 15 nM and the Emax is 267%.

`COc1cc(C(O)=C2C(=O)Nc3cc(Cl)c(-c4ccc(N(C)C)cc4F)cc32)on1` [Compound 148, 6-chloro-5-[4-(dimethylamino)-2-fluoro-phenyl]-3-[hydroxy-(3-methoxyisoxazol-5-yl)methylene]indolin-2-one]: the concentration for a half-maximal effect (EC50) was determined as 1 nM and the Emax stood at 158%.

On to `COc1cc(C(O)=C2C(=O)Nc3cc(Cl)c(-c4ccc(N5CCOCC5)c(F)c4)cc32)on1` [Compound 149, 6-chloro-5-(3-fluoro-4-morpholino-phenyl)-3-[hydroxy-(3-methoxyisoxazol-5-yl)methylene]indolin-2-one], for which the 50% effective concentration (EC50) came to 6 nM and the Emax was found to be 170%.

Regarding `CN1CCC(c2ccc(-c3cc4c(cc3Cl)NC(=O)C4=C(O)c3cc(F)cc(F)c3)cc2)C1` (stereo not drawn) [Compound 150, 6-chloro-3-[(3,5-difluorophenyl)hydroxy-methylene]-5-[4-(1-methylpyrrolidin-3-yl)phenyl]indolin-2-one hydrochloride], the EC50 came out at 14 nM and the Emax was 137%.

For the compound `COc1ccc(C(O)=C2C(=O)Nc3cc(Cl)c(-c4ccc(N5CCOCC5)cc4)cc32)cn1` [Compound 151, 6-chloro-3-[hydroxy-(6-methoxy-3-pyridyl)methylene]-5-(4-morpholinophenyl)indolin-2-one], the EC50 amounted to 6 nM and the Emax was determined as 161%.

In the case of `COc1cc(C(O)=C2C(=O)Nc3cc(Cl)c(-c4ccc(OC5CCC(O)CC5)cc4)cc32)on1` (stereo not drawn) [Compound 152, 6-chloro-5-[4-(4-hydroxycyclohexoxy)phenyl]-3-[hydroxy-(3-methoxyisoxazol-5-yl)methylene]indolin-2-one], the EC50 is 9 nM and the Emax was found to be 223%.

`COc1cc(C(O)=C2C(=O)Nc3cc(Cl)c(-c4ccc(N(C)C5CC5)cc4)cc32)on1` [Compound 153, 6-chloro-5-[4-[cyclopropyl(methyl)amino]phenyl]-3-[hydroxy-(3-methoxyisoxazol-5-yl)methylene]indolin-2-one]: the EC50 worked out at 7 nM and the Emax is 234%.

Regarding `COc1cc(C(O)=C2C(=O)Nc3cc(Cl)c(-c4ccc5c(ccn5C)c4)cc32)on1` [Compound 154, 6-chloro-3-[hydroxy-(3-methoxyisoxazol-5-yl)methylene]-5-(1-methylindol-5-yl)indolin-2-one], the EC50 is 0.7 nM and the Emax is 256%.

Consider `O=C1Nc2cc(Cl)c(-c3ccc(C4CC(O)C4)cc3)cc2C1=C(O)c1ccc(F)cc1F` (stereo not drawn) [Compound 155, 6-chloro-3-[(2,4-difluorophenyl)hydroxy-methylene]-5-[4-(3-hydroxycyclobutyl)phenyl]indolin-2-one], for which the EC50 was found to be 60 nM and the Emax stood at 131%.

For `COc1cc(C(O)=C2C(=O)Nc3cc(Cl)c(-c4ccc(N5CCC(O)C5)cc4)cc32)on1` (stereo not drawn) [Compound 156, 6-chloro-3-[hydroxy-(3-methoxyisoxazol-5-yl)methylene]-5-[4-(3-hydroxypyrrolidin-1-yl)phenyl]indolin-2-one], the half-maximal effective concentration (EC50) is 2 nM and the Emax was found to be 229%.

For `O=C1Nc2cc(Cl)c(-c3ccc(C4(CO)CC4)cc3)cc2C1=C(O)c1cc2cccnc2o1` [Compound 157, 6-chloro-3-[furo[2,3-b]pyridin-2-yl(hydroxy)methylene]-5-[4-[1-(hydroxymethyl)cyclopropyl]phenyl]indolin-2-one], the 50% effective concentration (EC50) worked out at 0.6 nM and the Emax was found to be 141%.

Take `COc1cc(C(O)=C2C(=O)Nc3cc(Cl)c(-c4ccc(C5(CO)CC5)cc4)cc32)ccn1` [Compound 158, 6-chloro-3-[hydroxy-(2-methoxy-4-pyridyl)methylene]-5-[4-[1-(hydroxymethyl)cyclopropyl]phenyl]indolin-2-one]: the 50% effective concentration (EC50) came to 0.5 nM and the Emax amounted to 130%.

For `COc1cc(F)c(C(O)=C2C(=O)Nc3cc(Cl)c(-c4ccc(C5CC(O)C5)cc4)cc32)cc1F` (stereo not drawn) [Compound 159, 6-chloro-3-[(2,5-difluoro-4-methoxy-phenyl)hydroxy-methylene]-5-[4-(3-hydroxycyclobutyl)phenyl]indolin-2-one], the half-maximal effective concentration (EC50) was 10 nM and the Emax turned out to be 180%.

In the case of `O=C1Nc2cc(Cl)c(-c3ccc(C4(CO)CC4)cc3)cc2C1=C(O)c1ccncc1F` [Compound 160, 6-chloro-3-[(3-fluoro-4-pyridyl)hydroxy-methylene]-5-[4-[1-(hydroxymethyl)cyclopropyl]phenyl]indolin-2-one], the EC50 came out at 0.1 nM and the Emax is 191%.

`O=C1Nc2cc(Cl)c(-c3ccc(C4CC(O)C4)cc3)cc2C1=C(O)c1cc(F)cc(F)c1` (stereo not drawn) [Compound 161, 6-chloro-3-[(3,5-difluorophenyl)hydroxy-methylene]-5-[4-(3-hydroxycyclobutyl)phenyl]indolin-2-one]: the EC50 amounted to 15 nM and the Emax turned out to be 155%.

On to `COc1cc(C(O)=C2C(=O)Nc3cc(Cl)c(-c4ccc(N5CCC5)cc4)cc32)on1` [Compound 162, 5-[4-(azetidin-1-yl)phenyl]6-chloro-3-[hydroxy-(3-methoxyisoxazol-5-yl)methylene]indolin-2-one], for which the EC50 was determined as 0.7 nM and the Emax was determined as 191%.

For the compound `COc1ccc(C(O)=C2C(=O)Nc3cc(Cl)c(-c4ccc(C5(CO)CC5)cc4)cc32)c(OC)c1` [Compound 163, 6-chloro-3-[(2,4-dimethoxyphenyl)hydroxy-methylene]-5-[4-[1-(hydroxymethyl)cyclopropyl]phenyl]indolin-2-one], the EC50 was determined as 3 nM and the Emax was found to be 196%.

Regarding `CC(C)(C)c1cc(C(O)=C2C(=O)Nc3cc(Cl)c(-c4ccc(C5CC(O)C5)cc4)cc32)on1` (stereo not drawn) [Compound 164, 3-[(3-tert-butylisoxazol-5-yl)-hydroxy-methylene]6-chloro-5-[4-(3-hydroxycyclobutyl)phenyl]indolin-2-one], the EC50 was 11 nM and the Emax was 194%.

Regarding `COc1cc(C(O)=C2C(=O)Nc3cc(Cl)c(-c4ccc(C5CC(OC)C5)cc4)cc32)on1` (stereo not drawn) [Compound 165, 6-chloro-3-[hydroxy-(3-methoxyisoxazol-5-yl)methylene]-5-[4-(3-methoxycyclobutyl)phenyl]indolin-2-one], the concentration giving a half-maximal response (EC50) was determined as 18 nM and the Emax was found to be 218%.

Consider `CC(C)Oc1cc(C(O)=C2C(=O)Nc3cc(Cl)c(-c4ccc(C5CC(O)C5)cc4)cc32)on1` (stereo not drawn) [Compound 166, 6-chloro-5-[4-(3-hydroxycyclobutyl)phenyl]-3-[hydroxy-(3-isopropoxyisoxazol-5-yl)methylene]indolin-2-one], for which the EC50 worked out at 13 nM and the Emax was determined as 207%.

Regarding `COc1cc(C(O)=C2C(=O)Nc3cc(Cl)c(-c4ccc(C5CCN(CC(F)(F)F)C5)cc4)cc32)on1` (stereo not drawn) [Compound 167, 6-chloro-3-[hydroxy-(3-methoxyisoxazol-5-yl)methylene]-5-[4-[1-(2,2,2-trifluoroethyl)pyrrolidin-3-yl]phenyl]indolin-2-one hydrochloride], the EC50 turned out to be 117 nM and the Emax stood at 156%.

In the case of `O=C1Nc2cc(Cl)c(-c3ccc(C4(CO)CC4)cc3)cc2C1=C(O)c1cc2ccccc2o1` [Compound 168, 3-[benzofuran-2-yl(hydroxy)methylene]6-chloro-5-[4-[1-(hydroxymethyl)cyclopropyl]phenyl]indolin-2-one], the EC50 came to 0.3 nM and the Emax turned out to be 173%.

For `O=C1Nc2cc(Cl)c(-c3ccc(C4(CO)CC4)cc3)cc2C1=C(O)c1cc2ncccc2o1` [Compound 169, 6-chloro-3-[furo[3,2-b]pyridin-2-yl(hydroxy)methylene]-5-[4-[1-(hydroxymethyl)cyclopropyl]phenyl]indolin-2-one], the EC50 is 0.1 nM and the Emax came to 172%.

Take `O=C1Nc2cc(Cl)c(-c3ccc(C4(CO)CC4)cc3)cc2C1=C(O)c1cc2cc(Cl)ccc2o1` [Compound 170, 6-chloro-3-[(5-chlorobenzofuran-2-yl)hydroxy-methylene]-5-[4-[1-(hydroxymethyl)cyclopropyl]phenyl]indolin-2-one]: the EC50 was 6 nM and the Emax turned out to be 181%.

In the case of `O=C1Nc2cc(Cl)c(-c3ccc(C4CC(O)C4)cc3)cc2C1=C(O)c1ccccc1F` (stereo not drawn) [Compound 171, 6-chloro-3-[(2-fluorophenyl)hydroxy-methylene]-5-[4-(3-hydroxycyclobutyl)phenyl]indolin-2-one], the EC50 amounted to 6 nM and the Emax amounted to 197%.

Turning to `COc1cc(C(O)=C2C(=O)Nc3cc(Cl)c(-c4ccc(OCCCN(C)C)cc4)cc32)on1` [Compound 173, 6-chloro-5-[4-[3-(dimethylamino)propoxy]phenyl]-3-[hydroxy-(3-methoxyisoxazol-5-yl)methylene]indolin-2-one], the EC50 amounted to 1 nM and the Emax turned out to be 181%.

For `O=C1Nc2cc(Cl)c(-c3ccc(C4CC(O)C4)cc3)cc2C1=C(O)c1cc(C2CC2)no1` (stereo not drawn) [Compound 174, 6-chloro-3-[(3-cyclopropylisoxazol-5-yl)hydroxy-methylene]-5-[4-(3-hydroxycyclobutyl)phenyl]indolin-2-one], the EC50 amounted to 1 nM and the Emax is 185%.

Values taken from patent US10077237B2 (Sanofi, priority 2013, dated 2018).
